Blank lines part the entries; values can stand above or below the compound they belong to.
What was measured:
Assay in all cases: radiometric filter-binding kinase assay, Kinase HotSpot
Conditions in all cases: compound 0.5 µM; ATP 10 µM
[1] = target: ADRBK1 (human) (UniProt P25098)
[2] = target: ADRBK2 (human) (UniProt P35626)
[3] = target: AKT3 (human) (UniProt Q9Y243)
[4] = target: BLK (human) (UniProt P51451)
[5] = target: CAMK1 (human) (UniProt Q14012)
[6] = target: CAMK1G (human) (UniProt Q96NX5)
[7] = target: CDK6 CCND1 (human) (UniProt Q00534+P24385)
[8] = target: CDK7 CCNH MNAT1 (human) (UniProt P50613+P51948+P51946)
[9] = target: CDK9 CCNK (human) (UniProt O75909+P50750)
[10] = target: CHUK (human) (UniProt O15111)
Sequence of CHUK (human) (O15111 whole entry, looked up): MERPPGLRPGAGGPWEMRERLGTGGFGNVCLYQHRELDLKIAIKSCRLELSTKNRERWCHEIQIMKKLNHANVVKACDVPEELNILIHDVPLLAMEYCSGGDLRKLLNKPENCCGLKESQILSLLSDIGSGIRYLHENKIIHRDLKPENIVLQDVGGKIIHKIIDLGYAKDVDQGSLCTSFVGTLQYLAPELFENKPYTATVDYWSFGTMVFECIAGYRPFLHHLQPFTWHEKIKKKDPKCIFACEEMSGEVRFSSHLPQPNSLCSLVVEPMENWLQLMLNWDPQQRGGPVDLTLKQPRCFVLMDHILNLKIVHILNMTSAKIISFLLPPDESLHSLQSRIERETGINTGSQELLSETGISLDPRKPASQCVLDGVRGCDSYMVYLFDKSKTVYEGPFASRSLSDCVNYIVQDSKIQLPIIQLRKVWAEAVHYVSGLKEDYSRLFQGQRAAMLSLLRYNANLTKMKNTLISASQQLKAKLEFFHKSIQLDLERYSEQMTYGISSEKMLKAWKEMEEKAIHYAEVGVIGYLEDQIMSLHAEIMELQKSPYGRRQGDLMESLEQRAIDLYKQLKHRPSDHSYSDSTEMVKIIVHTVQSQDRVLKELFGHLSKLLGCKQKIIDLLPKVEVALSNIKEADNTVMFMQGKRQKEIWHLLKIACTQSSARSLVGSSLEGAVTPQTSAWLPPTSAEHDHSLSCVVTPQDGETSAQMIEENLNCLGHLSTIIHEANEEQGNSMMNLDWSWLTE

[11] = target: CSF1R (human) (UniProt P07333)
[12] = target: DAPK3 (human) (UniProt O43293)
[13] = target: DSTYK (human) (UniProt Q6XUX3)
[14] = target: DYRK1A (human) (UniProt Q13627)
[15] = target: DYRK2 (human) (UniProt Q92630)
[16] = target: DYRK4 (human) (UniProt Q9NR20)
[17] = target: EPHA2 (human) (UniProt P29317)
Sequence of EPHA2 (human) (P29317 whole entry, looked up): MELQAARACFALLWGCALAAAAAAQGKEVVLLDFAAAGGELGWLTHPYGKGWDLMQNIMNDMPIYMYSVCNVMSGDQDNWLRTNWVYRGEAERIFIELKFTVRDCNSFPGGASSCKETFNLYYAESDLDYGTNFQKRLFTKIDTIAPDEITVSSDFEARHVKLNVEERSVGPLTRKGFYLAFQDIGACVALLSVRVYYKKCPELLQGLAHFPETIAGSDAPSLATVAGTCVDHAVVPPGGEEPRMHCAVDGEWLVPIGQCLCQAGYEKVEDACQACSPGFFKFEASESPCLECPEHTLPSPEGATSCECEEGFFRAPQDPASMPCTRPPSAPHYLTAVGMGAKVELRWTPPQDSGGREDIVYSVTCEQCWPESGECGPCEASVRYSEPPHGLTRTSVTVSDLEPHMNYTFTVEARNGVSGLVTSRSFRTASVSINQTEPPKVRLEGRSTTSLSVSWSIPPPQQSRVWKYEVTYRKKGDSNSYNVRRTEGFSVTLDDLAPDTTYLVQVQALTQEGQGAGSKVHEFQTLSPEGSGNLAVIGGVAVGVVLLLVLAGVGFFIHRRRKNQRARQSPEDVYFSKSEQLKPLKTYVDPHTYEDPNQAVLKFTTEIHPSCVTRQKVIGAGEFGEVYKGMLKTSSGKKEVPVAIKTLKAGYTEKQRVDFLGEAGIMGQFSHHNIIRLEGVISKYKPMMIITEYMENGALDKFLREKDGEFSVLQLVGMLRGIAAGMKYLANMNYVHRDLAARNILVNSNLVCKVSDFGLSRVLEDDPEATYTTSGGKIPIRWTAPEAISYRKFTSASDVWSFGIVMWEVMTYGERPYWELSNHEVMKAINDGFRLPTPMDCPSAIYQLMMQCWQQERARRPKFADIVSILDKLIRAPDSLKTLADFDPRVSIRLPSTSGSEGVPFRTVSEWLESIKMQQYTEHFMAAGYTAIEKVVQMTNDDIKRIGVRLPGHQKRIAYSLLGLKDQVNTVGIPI

[18] = target: ERBB2 (human) (UniProt P04626)
[19] = target: FER (human) (UniProt P16591)
[20] = target: FGFR1 (human) (UniProt P11362)
[21] = target: FGR (human) (UniProt P09769)
Sequence of FGR (human) (P09769 whole entry, looked up): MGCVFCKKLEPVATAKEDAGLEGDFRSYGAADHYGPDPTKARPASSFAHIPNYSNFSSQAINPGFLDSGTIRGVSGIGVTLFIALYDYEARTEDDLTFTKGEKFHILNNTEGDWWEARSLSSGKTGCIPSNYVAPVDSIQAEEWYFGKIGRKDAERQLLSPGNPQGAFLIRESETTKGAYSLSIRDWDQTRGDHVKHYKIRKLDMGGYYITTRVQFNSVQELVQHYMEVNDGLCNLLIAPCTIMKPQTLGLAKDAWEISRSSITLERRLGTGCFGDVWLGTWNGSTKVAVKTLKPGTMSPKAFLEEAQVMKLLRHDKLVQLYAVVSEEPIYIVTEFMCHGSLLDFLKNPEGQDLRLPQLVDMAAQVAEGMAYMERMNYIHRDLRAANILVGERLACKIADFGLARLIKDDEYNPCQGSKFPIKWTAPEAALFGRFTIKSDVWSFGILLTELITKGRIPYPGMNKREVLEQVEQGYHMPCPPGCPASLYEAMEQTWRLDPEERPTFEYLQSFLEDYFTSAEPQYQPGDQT

[22] = target: IRAK1 (human) (UniProt P51617)
[23] = target: IRAK4 (human) (UniProt Q9NWZ3)
Sequence of IRAK4 (human) (Q9NWZ3 whole entry, looked up): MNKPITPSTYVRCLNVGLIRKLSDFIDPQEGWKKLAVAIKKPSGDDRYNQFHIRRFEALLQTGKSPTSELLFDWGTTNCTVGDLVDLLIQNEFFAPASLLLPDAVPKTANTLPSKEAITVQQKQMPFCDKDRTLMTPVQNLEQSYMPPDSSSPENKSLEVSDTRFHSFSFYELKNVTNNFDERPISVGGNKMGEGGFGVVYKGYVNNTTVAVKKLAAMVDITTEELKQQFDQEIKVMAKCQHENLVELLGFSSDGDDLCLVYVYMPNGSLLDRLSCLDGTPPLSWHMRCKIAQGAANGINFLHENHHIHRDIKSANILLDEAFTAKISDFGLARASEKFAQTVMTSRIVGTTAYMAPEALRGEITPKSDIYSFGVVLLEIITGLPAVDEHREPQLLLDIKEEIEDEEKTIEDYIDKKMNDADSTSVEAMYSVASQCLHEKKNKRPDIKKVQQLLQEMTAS

[24] = target: JAK1 JH1 catalytic (human) (UniProt P23458)
[25] = target: MAPK12 (human) (UniProt P53778)
Sequence of MAPK12 (human) (P53778 whole entry, looked up): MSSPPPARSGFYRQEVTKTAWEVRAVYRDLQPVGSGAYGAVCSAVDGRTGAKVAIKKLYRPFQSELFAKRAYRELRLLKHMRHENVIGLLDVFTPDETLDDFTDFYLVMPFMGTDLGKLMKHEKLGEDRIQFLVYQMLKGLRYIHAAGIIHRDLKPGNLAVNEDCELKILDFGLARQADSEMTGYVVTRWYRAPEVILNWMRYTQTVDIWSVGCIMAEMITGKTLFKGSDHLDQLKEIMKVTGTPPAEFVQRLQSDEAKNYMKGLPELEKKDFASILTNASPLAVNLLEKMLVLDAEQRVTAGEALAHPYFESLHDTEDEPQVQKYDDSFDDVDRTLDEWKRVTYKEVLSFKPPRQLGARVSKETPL

[26] = target: MAPK14 (human) (UniProt Q16539)
[27] = target: MAPK8 (human) (UniProt P45983)
[28] = target: MINK1 (human) (UniProt Q8N4C8)
[29] = target: MST4 (human) (UniProt Q9P289)
[30] = target: MYLK (human) (UniProt Q15746)
[31] = target: NEK3 (human) (UniProt P51956)
[32] = target: NEK7 (human) (UniProt Q8TDX7)
[33] = target: NLK (human) (UniProt Q9UBE8)
[34] = target: PAK7 (human) (UniProt Q9P286)
[35] = target: PIM2 (human) (UniProt Q9P1W9)
[36] = target: PTK2 (human) (UniProt Q05397)
[37] = target: PTK2B (human) (UniProt Q14289)
Sequence of PTK2B (human) (Q14289 whole entry, looked up): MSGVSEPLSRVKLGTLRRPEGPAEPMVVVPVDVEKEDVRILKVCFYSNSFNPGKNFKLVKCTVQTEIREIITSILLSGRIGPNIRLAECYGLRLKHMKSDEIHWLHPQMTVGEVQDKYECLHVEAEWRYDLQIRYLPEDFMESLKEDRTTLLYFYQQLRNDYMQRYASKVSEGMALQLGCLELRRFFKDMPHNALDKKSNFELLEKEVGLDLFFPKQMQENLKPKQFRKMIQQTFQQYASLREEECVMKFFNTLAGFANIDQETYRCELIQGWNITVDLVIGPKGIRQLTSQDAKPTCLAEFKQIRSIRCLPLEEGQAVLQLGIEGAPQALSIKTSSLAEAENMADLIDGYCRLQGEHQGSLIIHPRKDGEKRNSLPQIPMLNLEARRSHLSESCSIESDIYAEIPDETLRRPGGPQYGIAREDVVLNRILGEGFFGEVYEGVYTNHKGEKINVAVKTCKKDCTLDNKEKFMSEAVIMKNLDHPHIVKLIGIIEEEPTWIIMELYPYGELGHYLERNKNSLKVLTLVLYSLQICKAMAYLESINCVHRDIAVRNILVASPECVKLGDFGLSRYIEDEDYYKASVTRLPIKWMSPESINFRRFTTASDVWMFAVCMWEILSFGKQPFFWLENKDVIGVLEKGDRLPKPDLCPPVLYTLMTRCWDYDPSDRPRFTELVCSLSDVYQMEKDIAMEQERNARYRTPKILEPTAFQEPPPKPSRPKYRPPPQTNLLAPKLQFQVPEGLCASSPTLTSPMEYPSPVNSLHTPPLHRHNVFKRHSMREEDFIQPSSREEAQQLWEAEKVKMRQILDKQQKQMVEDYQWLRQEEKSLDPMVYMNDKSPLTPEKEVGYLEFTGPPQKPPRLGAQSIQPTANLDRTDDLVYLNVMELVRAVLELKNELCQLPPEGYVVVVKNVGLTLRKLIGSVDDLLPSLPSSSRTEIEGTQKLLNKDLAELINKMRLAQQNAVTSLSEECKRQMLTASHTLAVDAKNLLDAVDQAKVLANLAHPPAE

[38] = target: SRPK1 (human) (UniProt Q96SB4)
[39] = target: SRPK2 (human) (UniProt P78362)
[40] = target: STK24 (human) (UniProt Q9Y6E0)
[41] = target: STK33 (human) (UniProt Q9BYT3)
[42] = target: TAOK3 (human) (UniProt Q9H2K8)
Sequence of TAOK3 (human) (Q9H2K8 whole entry, looked up): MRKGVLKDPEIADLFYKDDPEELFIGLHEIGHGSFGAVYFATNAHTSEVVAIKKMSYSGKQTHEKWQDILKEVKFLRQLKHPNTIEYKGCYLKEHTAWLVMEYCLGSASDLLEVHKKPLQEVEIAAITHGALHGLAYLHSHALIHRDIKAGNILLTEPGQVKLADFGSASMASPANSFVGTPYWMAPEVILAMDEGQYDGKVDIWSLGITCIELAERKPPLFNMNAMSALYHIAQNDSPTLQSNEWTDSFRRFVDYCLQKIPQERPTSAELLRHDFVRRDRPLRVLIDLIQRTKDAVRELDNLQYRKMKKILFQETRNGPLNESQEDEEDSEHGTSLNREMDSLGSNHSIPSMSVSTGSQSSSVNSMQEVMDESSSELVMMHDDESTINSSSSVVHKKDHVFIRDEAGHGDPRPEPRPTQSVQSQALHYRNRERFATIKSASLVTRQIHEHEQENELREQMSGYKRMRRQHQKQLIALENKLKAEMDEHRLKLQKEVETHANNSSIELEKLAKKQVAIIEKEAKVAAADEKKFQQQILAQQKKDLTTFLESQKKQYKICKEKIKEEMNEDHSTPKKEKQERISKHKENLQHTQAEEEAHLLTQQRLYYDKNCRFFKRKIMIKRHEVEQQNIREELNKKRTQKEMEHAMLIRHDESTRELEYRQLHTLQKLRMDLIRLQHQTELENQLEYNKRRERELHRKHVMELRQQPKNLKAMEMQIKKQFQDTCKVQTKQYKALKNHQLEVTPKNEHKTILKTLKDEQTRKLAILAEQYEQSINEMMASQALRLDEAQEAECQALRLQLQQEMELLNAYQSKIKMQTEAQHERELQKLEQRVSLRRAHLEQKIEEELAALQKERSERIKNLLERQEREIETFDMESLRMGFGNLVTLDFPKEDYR

Compound: COc1cc2ncnc(Nc3cccc(Cl)c3)c2cc1OC
residual activity [1]: 96.6%
residual activity [2]: 99.9%
residual activity [3]: 98.3%
residual activity [4]: 68.2%
residual activity [5]: 99.2%
residual activity [6]: 93.6%
residual activity [7]: 92.5%
residual activity [8]: 99.9%
residual activity [9]: 106%
residual activity [10]: 103%
residual activity [11]: 98.2%
residual activity [12]: 94.6%
residual activity [13]: 90.8%
residual activity [14]: 90.7%
residual activity [15]: 84.6%
residual activity [16]: 91.7%
residual activity [17]: 85.2%
residual activity [18]: 22.5%
residual activity [19]: 77.1%
residual activity [20]: 84.9%
residual activity [21]: 75.3%
residual activity [22]: 86.6%
residual activity [23]: 77.7%
residual activity [24]: 90.4%
residual activity [25]: 98.5%
residual activity [26]: 107%
residual activity [27]: 93.8%
residual activity [28]: 83.1%
residual activity [29]: 108%
residual activity [30]: 89%
residual activity [31]: 84.3%
residual activity [32]: 99%
residual activity [33]: 83.1%
residual activity [34]: 83%
residual activity [35]: 104%
residual activity [36]: 95.1%
residual activity [37]: 85.3%
residual activity [38]: 102%
residual activity [39]: 88.2%
residual activity [40]: 96.8%
residual activity [41]: 88.3%
residual activity [42]: 90.4%

residual activity [1]: 105%
residual activity [2]: 103%
residual activity [3]: 107%
residual activity [4]: 51.7%
residual activity [5]: 95.8%
residual activity [6]: 92.5%
residual activity [7]: 84.8%
residual activity [8]: 59.7%
residual activity [9]: 90.2%
residual activity [10]: 100%
residual activity [11]: 64.9%
residual activity [12]: 106%
residual activity [13]: 97.2%
residual activity [14]: 94.1%
residual activity [15]: 101%
residual activity [16]: 96.1%
residual activity [17]: 97.8%
residual activity [18]: 91.5%
residual activity [19]: 81%
residual activity [20]: 80%
residual activity [21]: 39.2%
residual activity [22]: 57.7%
residual activity [23]: 65.5%
residual activity [24]: 68%
residual activity [25]: 99.8%
residual activity [26]: 86.2%
residual activity [27]: 86.9%
residual activity [28]: 68.7%
residual activity [29]: 63.5%
residual activity [30]: 84.3%
residual activity [31]: 98.7%
residual activity [32]: 90.3%
residual activity [33]: 106%
residual activity [34]: 97.1%
residual activity [35]: 103%
residual activity [36]: 96.8%
residual activity [37]: 57.7%
residual activity [38]: 77.3%
residual activity [39]: 60.5%
residual activity [40]: 49.6%
residual activity [41]: 67.9%
residual activity [42]: 61.5%
Compound: Cc1[nH]c(/C=C2\C(=O)Nc3ccc(S(=O)(=O)N(C)c4cccc(Cl)c4)cc32)c(C)c1C(=O)N1CCN(C)CC1

Compound: Nc1ccc2ncnc(NCCc3ccc(Oc4ccccc4)cc3)c2c1
residual activity [1]: 91.5%
residual activity [2]: 97.9%
residual activity [3]: 104%
residual activity [4]: 97.1%
residual activity [5]: 107%
residual activity [6]: 102%
residual activity [7]: 101%
residual activity [8]: 99.3%
residual activity [9]: 104%
residual activity [10]: 101%
residual activity [11]: 106%
residual activity [12]: 104%
residual activity [13]: 101%
residual activity [14]: 101%
residual activity [15]: 89.6%
residual activity [16]: 93.7%
residual activity [17]: 103%
residual activity [18]: 108%
residual activity [19]: 99.5%
residual activity [20]: 86.3%
residual activity [21]: 101%
residual activity [22]: 107%
residual activity [23]: 92.4%
residual activity [24]: 94.6%
residual activity [25]: 93.6%
residual activity [26]: 95.7%
residual activity [27]: 104%
residual activity [28]: 95.4%
residual activity [29]: 94.4%
residual activity [30]: 98.5%
residual activity [31]: 108%
residual activity [32]: 96%
residual activity [33]: 104%
residual activity [34]: 106%
residual activity [35]: 119%
residual activity [36]: 98.6%
residual activity [37]: 95%
residual activity [38]: 99.8%
residual activity [39]: 95.3%
residual activity [40]: 107%
residual activity [41]: 101%
residual activity [42]: 102%

Compound: N#C/C(=C(/N)Sc1ccc(N)cc1)c1ccccc1C(F)(F)F
residual activity [1]: 114%
residual activity [2]: 101%
residual activity [3]: 96.2%
residual activity [4]: 111%
residual activity [5]: 91.6%
residual activity [6]: 96.6%
residual activity [7]: 98%
residual activity [8]: 100%
residual activity [9]: 98%
residual activity [10]: 102%
residual activity [11]: 101%
residual activity [12]: 102%
residual activity [13]: 113%
residual activity [14]: 93.9%
residual activity [15]: 96.6%
residual activity [16]: 92.4%
residual activity [17]: 104%
residual activity [18]: 93%
residual activity [19]: 105%
residual activity [20]: 108%
residual activity [21]: 101%
residual activity [22]: 100%
residual activity [23]: 89.8%
residual activity [24]: 106%
residual activity [25]: 97.4%
residual activity [26]: 96%
residual activity [27]: 112%
residual activity [28]: 104%
residual activity [29]: 97.2%
residual activity [30]: 94.9%
residual activity [31]: 99.6%
residual activity [32]: 93.9%
residual activity [33]: 108%
residual activity [34]: 104%
residual activity [35]: 103%
residual activity [36]: 101%
residual activity [37]: 105%
residual activity [38]: 96.5%
residual activity [39]: 99.5%
residual activity [40]: 89.3%
residual activity [41]: 92.2%
residual activity [42]: 98.6%

From the kinase profiling compilation of Christmann-Franck et al. (2016)
